According to patent US8551507B2, “Terpene glycosides and their combinations as solubilizing agents” (Board of Supervisors of Louisiana State University And …, priority 2009, dated 2013):
Converted amounts (≈) assume the structure as drawn. Like-named read-outs stand apart in the source and are kept apart here.

Experiments:
[1] = Merck Index, Material Safety Data Sheets or general statement, cited from earlier work
physchem [2] = conditions: 25 °C, water, thermodynamic from solid
[3] = 72 h
[4] = Solubility test: low-solubility compound in water or in water solutions containing 10% w/v natural solubilizer, quantified by HPLC/LC-MS; conditions: 25° C. 72 hr; for Concentration in water solution With Geniposide: 10% w/v geniposide in water; for Concentration in water solution With Mogroside V: 10% w/v mogroside V in water; for Concentration in water solution With Paeoniflorin: 10% w/v paeoniflorin in water; for Concentration in water solution With Rebaudioside A: 10% w/v rebaudioside A in water; for Concentration in water solution With Rubusoside: 10% w/v rubusoside in water
[5] = Safety of daily consumption of steviol glycosides (estimates based on aglycone steviol); format: in vivo
physchem [6] = conditions: water
[7] = in vivo; cited from earlier work
hypertensive rats = conditions: intraperitoneal, 50 mg/kg and 100 mg/kg body weight, hypertensive rats (Hsu et al. 2002); cited from earlier work
[8] = cyclodextrins, comparison; cited from earlier work

Row | Compound | Water solubility in words [1] | Concentration in water solution With Astragaloside [3] [ng/mL] | Concentration in water solution With Geniposide [3] [ng/mL] | Concentration in water solution With Mogroside V [3] [ng/mL] | Concentration in water solution With Paeoniflorin [3] [ng/mL] | Concentration in water solution With Rubusoside [3] [ng/mL] | other results
1 | C[C@@H]1CC[C@H]2[C@@H](C)C(=O)O[C@@H]3O[C@@]4(C)CC[C@@H]1[C@]32OO4 [Artemisinin, artemisinin, reference compound] | poorly soluble | 0 | 146000 | 148000 | 218000 | 280000 | Water solubility in words ([1]; listed as artemisinin): insoluble; solubility at 72 h (physchem [2]): 53 µg/mL (≈ 0.188 mM)
2 | CC[C@@]1(O)C(=O)OCc2c1cc1n(c2=O)Cc2cc3ccccc3nc2-1 [Camptothecin, camptothecin] | poor solubility in water | – | – | – | – | – | Water solubility in words ([1]; listed as camptothecin): insoluble; Concentration in water solution With Geniposide [4]: 25000 ng/mL; Concentration in water solution With Mogroside V [4]: 18000 ng/mL; Concentration in water solution With Paeoniflorin [4]: 53000 ng/mL; Concentration in water solution With Paeoniflorin ([4]; listed as camptothecin): 54000 ng/mL; Concentration in water solution With Rebaudioside A [4]: 48000 ng/mL; Concentration in water solution With Rubusoside [4]: 61000 ng/mL
3 | Cc1ccc(-c2cc(C(F)(F)F)nn2-c2ccc(S(N)(=O)=O)cc2)cc1 [Celecoxib, celecoxib, reference compound] | poor solubility in water | 0 | 3000 | 47000 | 253000 | 488000 | Water solubility in words ([1]; listed as celecoxib): water insoluble; Solubility in water without solubilizer [3]: 0^2 μg/mL
4 | CC(C)/N=c1\cc2n(-c3ccc(Cl)cc3)c3ccccc3nc-2cc1Nc1ccc(Cl)cc1 [Clofazimine, clofazimine, reference compound] | practically insoluble in water | 400 | 48000 | 58000 | 565000 | 132000 | solubility at 72 h (physchem [2]): 7.6 µg/mL (≈ 0.0161 mM); Concentration in water solution With Rebaudioside A [3]: 109000 ng/mL; Concentration in water solution With Steviol monoside [3]: 0 ng/mL; Concentration in water solution With Stevioside [3]: 64000 ng/mL
5 | COC1=C(OC)C(=O)C(C/C=C(\C)CC/C=C(\C)CC/C=C(\C)CC/C=C(\C)CC/C=C(\C)CC/C=C(\C)CC/C=C(\C)CC/C=C(\C)CC/C=C(\C)CCC=C(C)C)=C(C)C1=O [Coenzyme Q10, coenzyme Q10] | insolubility in water | – | – | – | – | 111000 | –
6 | COc1cc(/C=C/C(=O)CC(=O)/C=C/c2ccc(O)c(OC)c2)ccc1O [Curcumin, curcumin] | insoluble in water | 0 | 4000 | 44000 | 5000 | 262000 | Water solubility in words ([1]; listed as curcumin): insoluble; Concentration in water solution With Steviol monoside [3]: 4000 ng/mL
7 | C[C@H]1O[C@@H](O[C@H]2[C@@H](O)C[C@H](O[C@H]3[C@@H](O)C[C@H](O[C@H]4CC[C@@]5(C)[C@H](CC[C@@H]6[C@@H]5C[C@@H](O)[C@]5(C)[C@@H](C7=CC(=O)OC7)CC[C@]65O)C4)O[C@@H]3C)O[C@@H]2C)C[C@H](O)[C@@H]1O [Digoxin, digoxin] | – | – | – | – | – | – | solubility (physchem [2]): 19 µg/mL (≈ 0.0243 mM)
8 | CO[C@H]1C[C@H](O[C@H]2CC[C@@]3(C)[C@H](CC[C@@H]4[C@@H]3CC[C@]3(C)[C@@H](C5=CC(=O)OC5)[C@@H](OC(C)=O)C[C@]43O)C2)O[C@@H](C)[C@@H]1O [Oleandrin, oleandrin] | practically insoluble in water | – | – | – | – | – | Concentration in water solution With Geniposide [4]: 28000 ng/mL; Concentration in water solution With Mogroside V [4]: 47000 ng/mL; Concentration in water solution With Paeoniflorin [4]: 42000 ng/mL; Concentration in water solution With Rebaudioside A [4]: 67000 ng/mL; Concentration in water solution With Rubusoside [4]: 123000 ng/mL; Concentration in water solution With Stevioside ([4]; 10% w/v stevioside in water): 74000 ng/mL; Concentration in water solution With Astragaloside ([4]; nominal 10% w/v astragaloside IV in water (precipitated, less than 10%)): 5000 ng/mL; Concentration in water solution With Steviol monoside ([4]; nominal 10% w/v steviol monoside in water (precipitated, less than 10%)): 7000 ng/mL; solubility (physchem [2]): 3 µg/mL (≈ 0.0052 mM)
9 | CC(=O)O[C@H]1C(=O)[C@@]2(C)[C@H]([C@H](OC(=O)c3ccccc3)[C@]3(O)C[C@H](OC(=O)[C@H](O)[C@@H](NC(=O)c4ccccc4)c4ccccc4)C(C)=C1C3(C)C)[C@]1(OC(C)=O)CO[C@@H]1C[C@@H]2O [Paclitaxel, paclitaxel, reference compound] | not soluble in water | – | 1000 | 7000 | 20000 | 65000 | Water solubility in words ([1]; listed as paclitaxel): insoluble; Concentration in water solution With Rebaudioside A [3]: 26000 ng/mL
10 | C=C1C[C@@]23CC[C@H]4[C@@](C)(CCC[C@@]4(C)C(=O)O[C@@H]4O[C@H](CO)[C@@H](O)[C@H](O)[C@H]4O)[C@@H]2CC[C@]1(O[C@@H]1O[C@H](CO)[C@@H](O)[C@H](O)[C@H]1O)C3 [Rubusoside, b-D-glucosyl ester of 13-O-b-D-glucosyl-steviol] | good solubility in water | – | – | – | – | – | No-observed-effect level ([5]; estimate based on 383 mg/kg body weight daily expressed as steviol): up to 766 mg rubusoside/kg body weight; Daily consumption that is safe and has no adverse effect ([5]; estimate based on the aglycone steviol): 8 mg rubusoside/kg body weight; solubility (physchem [6]; 25 °C): ~400000 µg/mL (≈ 622 mM); solubility (physchem [6]; 37 °C): ~800000 µg/mL (≈ 1240 mM)
11 | COc1cc(C2Oc3cc([C@H]4Oc5cc(O)cc(O)c5C(=O)[C@@H]4O)ccc3OC2CO)ccc1O (some centres unmarked) [Silybin, silybin] | – | 0 | 16000 | 18000 | 37000 | 150000 | Solubility in water without solubilizer [3]: 0^2 μg/mL
12 | Cc1coc2c1C(=O)C(=O)c1c-2ccc2c1CCCC2(C)C [Tanshinone IIA, tanshinone IIA] | – | 0 | 100 | 500 | 23000 | 127000 | Solubility in water without solubilizer [3]: 0^2 μg/mL
13 | CCC(C)n1ncn(-c2ccc(N3CCN(c4ccc(OCC5COC(Cn6cncn6)(c6ccc(Cl)cc6Cl)O5)cc4)CC3)cc2)c1=O (centres unmarked) [itraconazole, reference compound] | practically insoluble in water | – | – | – | – | – | –
14 | C=C1C[C@@]23CC[C@H]4[C@@](C)(CCC[C@@]4(C)C(=O)O)[C@@H]2CC[C@]1(O)C3 [steviol] | – | – | – | – | – | – | No-observed-effect level expressed as steviol [7]: 383 mg/kg body weight daily
15 | C=C1C[C@@]23CC[C@H]4[C@@](C)(CCC[C@@]4(C)C(=O)O[C@@H]4O[C@H](CO)[C@@H](O)[C@H](O)[C@H]4O)[C@@H]2CC[C@]1(O[C@@H]1O[C@H](CO)[C@@H](O)[C@H](O)[C@H]1O[C@@H]1O[C@H](CO)[C@@H](O)[C@H](O)[C@H]1O)C3 [stevioside] | – | – | – | – | – | – | Adverse effects (hypertensive rats): no adverse effects
16 | OC[C@H]1O[C@@H]2O[C@H]3[C@H](O)[C@@H](O)[C@@H](O[C@H]4[C@H](O)[C@@H](O)[C@@H](O[C@H]5[C@H](O)[C@@H](O)[C@@H](O[C@H]6[C@H](O)[C@@H](O)[C@@H](O[C@H]7[C@H](O)[C@@H](O)[C@@H](O[C@H]1[C@H](O)[C@H]2O)O[C@@H]7CO)O[C@@H]6CO)O[C@@H]5CO)O[C@@H]4CO)O[C@@H]3CO [α-CD] | – | – | – | – | – | – | Solubility in water [8]: 15 g/100 mL
